Source: ChEMBL document CHEMBL4138060, “Development of new scaffolds as reversible tissue transglutaminase inhibitors, with improved potency or resistance to glutathione addition” (Medchemcomm, 2017)

molecular target: T1, Protein-glutamine gamma-glutamyltransferase (Homo sapiens, UniProt P21980); assay: Competitive inhibition of human transglutaminase 2 using N-Cbz-Glu(gamma-p-nitrophenylester)Gly (AL5) substrate measured over 10 mins by UV-visible spectrophotometry based Michaelis-Menten analysis; details: not given
T1 sequence (P21980 whole entry): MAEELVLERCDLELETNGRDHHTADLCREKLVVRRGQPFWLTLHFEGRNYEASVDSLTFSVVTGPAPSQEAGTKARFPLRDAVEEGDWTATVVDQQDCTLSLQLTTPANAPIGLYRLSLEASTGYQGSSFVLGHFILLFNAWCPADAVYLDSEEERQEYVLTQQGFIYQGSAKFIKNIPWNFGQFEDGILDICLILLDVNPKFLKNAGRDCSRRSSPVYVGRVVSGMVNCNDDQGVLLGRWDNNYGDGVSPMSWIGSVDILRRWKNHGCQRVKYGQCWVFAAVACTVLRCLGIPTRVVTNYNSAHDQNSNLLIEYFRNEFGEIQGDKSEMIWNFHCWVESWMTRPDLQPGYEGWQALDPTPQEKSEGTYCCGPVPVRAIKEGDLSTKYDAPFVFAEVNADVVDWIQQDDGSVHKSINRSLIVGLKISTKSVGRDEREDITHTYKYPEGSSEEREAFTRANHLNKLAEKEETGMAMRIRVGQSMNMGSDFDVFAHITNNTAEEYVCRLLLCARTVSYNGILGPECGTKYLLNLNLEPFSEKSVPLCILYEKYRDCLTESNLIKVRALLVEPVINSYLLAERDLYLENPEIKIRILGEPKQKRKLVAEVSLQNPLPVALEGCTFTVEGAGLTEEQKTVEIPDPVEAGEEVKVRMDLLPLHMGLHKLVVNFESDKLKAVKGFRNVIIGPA

**Q.** For O=C(c1cn(Cc2ccc([N+](=O)[O-])cc2)nn1)c1cn(Cc2ccc([N+](=O)[O-])cc2)nn1, which Ki is on record?
**A.** The Ki was 9.9 µM.

**Q.** Which Ki does the source give for O=C(C#Cc1ccc([N+](=O)[O-])cc1)c1cn(Cc2ccc([N+](=O)[O-])cc2)nn1 here?
**A.** The Ki was 0.42 µM.

molecular target: T1, Protein-glutamine gamma-glutamyltransferase; assay: Inhibition of human transglutaminase 2 using N-Cbz-Glu(gamma-p-nitrophenylester)Gly (AL5) substrate measured over 10 mins by UV-visible spectrophotometry; details: not given

**Q.** For O=C(c1cn(Cc2ccc(F)cc2)nn1)c1cn(Cc2ccc([N+](=O)[O-])cc2)nn1, which IC50 is on record?
**A.** Its IC50 is “Not Active”.

**Q.** With Cc1ccc(Cn2cc(C(=O)c3cn(Cc4ccc([N+](=O)[O-])cc4)nn3)nn2)cc1 as the molecule, how does the IC50 read?
**A.** The IC50 was “Not Active”.

**Q.** With CC(C)/C(=C/C(=O)n1nnc2ccccc21)c1ccc([N+](=O)[O-])cc1 as the molecule, how does the IC50 read?
**A.** Its IC50 is “Not Active”.

**Q.** For CC(C)/C(=C\C(=O)n1nnc2ccccc21)c1ccc([N+](=O)[O-])cc1, which IC50 is on record?
**A.** The IC50 was “Not Active”.

**Q.** For O=[N+]([O-])c1cccc(-c2cc(-c3cccnc3)on2)c1, which IC50 is on record?
**A.** The IC50 was “Not Active”.

**Q.** Which IC50 does the source give for O=C(c1cn(Cc2ccc(Br)cc2)nn1)c1cn(Cc2ccc([N+](=O)[O-])cc2)nn1 here?
**A.** The IC50 was “Not Active”.

**Q.** For COc1ccc(Cn2cc(C(=O)c3cn(Cc4ccc([N+](=O)[O-])cc4)nn3)nn2)cc1, which IC50 is on record?
**A.** Its IC50 is “Not Active”.

**Q.** For O=C(c1cn(Cc2ccccc2)nn1)c1cn(Cc2ccc([N+](=O)[O-])cc2)nn1, which IC50 is on record?
**A.** Its IC50 is “Not Active”.

**Q.** Which IC50 does the source give for O=C(c1cn(Cc2ccc([N+](=O)[O-])cc2)nn1)c1cn(CC2CCCCC2)nn1 here?
**A.** Its IC50 is “Not Active”.

**Q.** For O=C(c1cn(Cc2ccc(C(F)(F)F)cc2)nn1)c1cn(Cc2ccc(C(F)(F)F)cc2)nn1, which IC50 is on record?
**A.** The IC50 was “Not Active”.

**Q.** For C/C(=C\C(=O)n1nnc2ccccc21)c1ccc([N+](=O)[O-])cc1, which IC50 is on record?
**A.** The IC50 was “Not Active”.

same assay, conditions: read-out: IC50

**Q.** With N#Cc1ccc(Cn2cc(C(=O)c3cn(Cc4ccc([N+](=O)[O-])cc4)nn3)nn2)cc1 as the molecule, how does the IC50 read?
**A.** The IC50 was > 100 µM.

**Q.** Which IC50 does the source give for O=C(c1cc2cc([N+](=O)[O-])ccc2oc1=O)n1nnc2ccccc21 here?
**A.** The IC50 was 145 µM.

**Q.** Which IC50 does the source give for O=C(c1cn(Cc2ccc([N+](=O)[O-])cc2)nn1)c1cn(Cc2ccc([N+](=O)[O-])cc2)nn1 here?
**A.** The IC50 was 14.1 µM.

**Q.** For O=C(c1cccnc1)[C@H]1C[C@@H]1c1cccc([N+](=O)[O-])c1, which IC50 is on record?
**A.** The IC50 was 147 µM.

**Q.** With O=C(c1cn(Cc2ccc(OC(F)(F)F)cc2)nn1)c1cn(Cc2ccc([N+](=O)[O-])cc2)nn1 as the molecule, how does the IC50 read?
**A.** Its IC50 is > 100 µM.

**Q.** Which IC50 does the source give for O=C(C#Cc1ccc([N+](=O)[O-])cc1)n1nnc2ccccc21 here?
**A.** Its IC50 is 2.6 µM.

**Q.** With O=C(C#Cc1ccc([N+](=O)[O-])cc1)c1cn(Cc2ccccc2)nn1 as the molecule, how does the IC50 read?
**A.** Its IC50 is 0.61 µM.

**Q.** Which IC50 does the source give for O=C(C#Cc1ccc([N+](=O)[O-])cc1)c1cn(Cc2ccc([N+](=O)[O-])cc2)nn1 here?
**A.** The IC50 was 0.79 µM.

**Q.** For O=C(/C=C/c1cccc([N+](=O)[O-])c1)c1cccnc1, which IC50 is on record?
**A.** Its IC50 is 19.6 µM.

**Q.** Which IC50 does the source give for O=C(c1cn(Cc2ccc([N+](=O)[O-])cc2)nn1)c1cn(Cc2ccc(C(F)(F)F)cc2)nn1 here?
**A.** Its IC50 is 25.9 µM.

**Q.** Which IC50 does the source give for O=C(c1cn(Cc2ccc([N+](=O)[O-])cc2)nn1)c1cn(Cc2cccc([N+](=O)[O-])c2)nn1 here?
**A.** Its IC50 is > 100 µM.

**Q.** With O=C(c1cn(Cc2ccc([N+](=O)[O-])cc2)nn1)c1cn(Cc2ccccc2[N+](=O)[O-])nn1 as the molecule, how does the IC50 read?
**A.** Its IC50 is 64.1 µM.

**Q.** With O=[N+]([O-])c1cccc(/C=C/C2(c3cccnc3)CO2)c1 (stereo not drawn) as the molecule, how does the IC50 read?
**A.** The IC50 was 151 µM.

molecular target: not listed separately; assay: Inhibition of guinea pig liver transglutaminase 2 using N-Cbz-Glu(gamma-p-nitrophenylester)Gly (AL5) substrate measured over 10 mins by UV-visible spectrophotometry; parameters: species or system Cavia porcellus; details: not given

**Q.** With O=C(/C=C/c1ccc([N+](=O)[O-])cc1)c1cn(Cc2ccc([N+](=O)[O-])cc2)nn1 as the molecule, how does the IC50 read?
**A.** Its IC50 is 2.1 µM.

**Q.** Which IC50 does the source give for O=C(/C=C/c1ccc([N+](=O)[O-])cc1)n1nnc2ccccc21 here?
**A.** The IC50 was 74 µM.

molecular target: not listed separately; assay: Inhibition of guinea pig liver transglutaminase 2; parameters: species or system Cavia porcellus; details: not given

**Q.** Which IC50 does the source give for O=C(/C=C/c1ccc([N+](=O)[O-])cc1)c1cccnc1 here?
**A.** Its IC50 is 21 µM.

**Q.** For O=C(/C=C/c1cccc([N+](=O)[O-])c1)c1cccnc1, which IC50 is on record?
**A.** Its IC50 is 3 µM.

**Q.** Which IC50 does the source give for O=C(/C=C/c1ccc([N+](=O)[O-])cc1)n1nnc2ccccc21 here?
**A.** Its IC50 is 74 µM.

molecular target: T1, Protein-glutamine gamma-glutamyltransferase; assay: Inhibition of human transglutaminase 2; details: not given

**Q.** For O=C(/C=C/c1cccc([N+](=O)[O-])c1)c1cccnc1, which IC50 is on record?
**A.** The IC50 was 19.6 µM.

**Q.** And the Ki?
**A.** The Ki was 4 µM.
